Source: PMC8933493, “Mechanism and biomass association of glucuronoyl esterase: an α/β hydrolase with potential in biomass conversion” (Nature Communications, 2022)

What was measured:
OtCE15A [1] = target: T1, OtCE15A (Opitutus terrae, UniProt B1ZMF4); test: continuous coupled assay, K-URONIC kit; Arrhenius analysis of kcat; format: biochemical; conditions: 20 to 40 °C in 5 °C steps
T1 construct: gene Oter_0116; His6-tag; no CBM; E. coli BL21(DE3); IMAC and size exclusion; active-site Ser267, Arg268, Glu290, Asp356, His408

OtCE15A [2] = target: T2, OtCE15A (Opitutus terrae, UniProt B1ZMF4, R268A); test: X-ray crystal structure after […] s soak in saturated BnzGlcA; format: binding; conditions: covalent; glucuronoyl acyl-enzyme intermediate formed from the soaked substrate; pH 6.5 crystals, 10% DMSO
T2 construct: gene Oter_0116; His6-tag; no CBM; E. coli BL21(DE3); IMAC and size exclusion; active-site Ser267, Arg268, Glu290, Asp356, His408

OtCE15A [3] = target: T1, OtCE15A; test: continuous coupled assay, K-URONIC kit (Megazyme); format: biochemical; conditions: duplicate, at least 8 substrate concentrations
Source text: continuous coupled assay, K-URONIC kit (Megazyme) on OtCE15A

T1 sequence (B1ZMF4 entry or part of it): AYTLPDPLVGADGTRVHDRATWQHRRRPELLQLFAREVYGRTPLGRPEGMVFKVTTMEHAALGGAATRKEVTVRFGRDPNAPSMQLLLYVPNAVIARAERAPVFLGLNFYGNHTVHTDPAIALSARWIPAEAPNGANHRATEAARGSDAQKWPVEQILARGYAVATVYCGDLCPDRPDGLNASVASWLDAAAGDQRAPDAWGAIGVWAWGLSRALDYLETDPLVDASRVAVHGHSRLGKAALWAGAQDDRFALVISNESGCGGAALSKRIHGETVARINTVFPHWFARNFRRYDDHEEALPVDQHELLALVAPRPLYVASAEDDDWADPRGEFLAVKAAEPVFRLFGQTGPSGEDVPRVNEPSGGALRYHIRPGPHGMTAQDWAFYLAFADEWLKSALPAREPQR
T2 sequence (B1ZMF4 entry or part of it R268A): as the sequence (B1ZMF4 entry or part of it) above, with R236A counted along it

Row | Km (OtCE15A [3]) [µM] | SMILES | continuous coupled assay, K-URONIC kit; Arrhenius analysis of kcat (OtCE15A [1]) | X-ray crystal structure after 30 s soak in saturated BnzGlcA (OtCE15A [2])
1 | – | O=C(OCc1ccccc1)[C@H]1OC(O)[C@H](O)[C@@H](O)[C@@H]1O (stereo partly drawn) [BnzGlcA, benzyl GlcA] | small substrate benzyl GlcA (BnzGlcA) by determining kcat at different temperatures | after soaking with the BnzGlcA substrate clearly shows the formation of a CI
2 | 2770 ± 150 | COC(=O)[C@H]1OC(O)[C@H](O)[C@@H](O)[C@@H]1O (stereo partly drawn) [MeGlcA, GlcA methyl ester] | – | –
